Assay in data set [1]: not given
This is another data set of the same source.

Molecules are shown by their SMILES.

`O=C(O)c1cn(C2CC2)c2cc(N3CCNCC3)c(F)cc2c1=O` [cipro, ciprofloxacin]: the “exhaustion of cipro on cPU” value (applied concentration 0.5% owf, pH 8.6, 20:1, 45° C., 3.5 hours) was “about 60%”. The “ciprofloxacin taken up by cPU” value (dyeing temperature 55° C., pH 8.6, 20:1, 2% owf, 3.5 hours) was 70%. Under “dyeing time 3.5 hours, pH 8.6, 20:1, 2% owf, 45° C.”, the “cipro exhausted on cPU” value is listed as “about 61%”. Further, the “standard affinity of cipro for cPU” value in data set [1] (T 318.15 K, RT ln K) came out at 1.12 kcal/mol. Besides, in data set [1] (as quoted in the description), the saturation value came out at 0.45 g/kg.

Values taken from patent US20050196375A1, “Methods of applying antibiotic compounds to polyurethane biomaterials using textile dyeing technology” (priority 2000, published 2005).
